Test results taken from US7438926B2, “Methods for inhibiting decrease in transdermal drug flux by inhibition of pathway closure” (Alza Corporation, priority 2000, dated 2008).
Structures can show the parent of a compound that is named as a salt. Where two headings read alike, the source gives them in different places.

Tests used:
pathway closure [1] = experiment: Effect of pathway closure inhibitors on passive transdermal PPS flux (Example 3, 545 μm array); format: in vivo, hairless guinea pigs; conditions: for Effect on decrease in PPS flux between 1 and 24 h (in words): 3% citric acid trisodium salt or 50% 1,2,6-hexanetriol in PPS 0.1 mg/mL formulation; for Increase in total amount of PPS transported as compared to controls: 3% citric acid trisodium salt or 50% 1,2,6-hexanetriol
Procedure: In this experiment, PPS was delivered by passive diffusion through pathways in the skin created by a microprotrusion array. The concentration of PPS was below the concentration required for inhibition of pathway collapse (see Table II). Therefore, at the concentration used in this experiment, PPS behaved like a drug lacking any activity on pathway closure.
Microprotrusion array application was performed with an impact applicator. […] Following application, the stretching tension was released. […] Flux in the presence of 1,2,6-hexanetriol was decreased by less than 2 fold between 1 and 24 h. Total amount transported was increased about 4 and 7 folds in the presence of citric acid and 1,2,6-hexanetriol, respectively, as compared to controls as shown in FIG. 2.

pathway closure [2] = experiment: Inhibition of pathway closure by chemicals, methylene blue dye score after microprotrusion array pretreatment; format: in vivo, hairless guinea pigs; conditions: 24 h; for Effect on pathway closure (in words): methylene blue evaluation, Table II; for Score (methylene blue): scale 0 to 5, 0.5 or greater significant
Procedure: Inhibition of pathway collapse by chemical agents was studied following pretreatment of the skin with a microprotrusion array and application of a formulation containing the agent for 24 h. Quantitation was performed by evaluation of dye impregnation of the pathways.
Application of the microprotrusion array was performed with an impact applicator. […] Following application, the stretching tension was released. […] The guinea pig received a second system containing a different formulation on the opposite site. Twenty four hours after application, three systems from each group were removed and residual formulation washed from the skin. The skin was stained with a 1% methylene blue solution. Excess dye was thoroughly removed with 70% isopropyl alcohol pads and a picture of the site was taken. Pictures were scored on a 0 to 5 scale, 5 being the dye uptake obtained immediately following microprotrusion array application and 0 being the dye uptake obtained after 24 h contact with a control formulation. A score of 0.5 or greater was considered significant. Various osmotic agents, anticoagulants, antiinflammatory agents, gelling agents as well as gels of different pH and various additives were tested (Table II).

pathway closure [3] = conditions: PPS 0.16 mg/mL; 3% citric acid trisodium salt, 50% 1,2,6-hexanetriol or their mixture; 45 min vs 24 h
Procedure: In all guinea pigs, the skin of one flank was manually stretched bilaterally at the time of the application of the system. Microprotrusion array application was performed with an impact applicator. […] Following application, the stretching tension was released. The adhesive ring was left adhered on the skin and the microprotrusion array was removed. […] Additional groups of HGPs were treated in the same way, except that the formulation contained 3% citric acid trisodium salt or 50% 1,2,6-hexanetriol. At 1 and 24 h after application, 3 systems from each group were removed and residual drug washed from the skin.
(§1) Evaluation was performed at 45 min instead of 1 h. In addition, additional groups of animals received a formulation containing the mixture of 3% citric acid trisodium salt and 50% 1,2,6-hexanetriol.

[4] = Passive intracutaneous delivery of plasmid DNA vaccine with microprotrusion array (skin biopsy, PCR); format: in vivo, hairless guinea pigs; conditions: for Increase in plasmid DNA delivered as compared to the control formulation: at one hour, 3% citric acid trisodium salt or 1% Tween 80 in formulation
Procedure: Feasibility studies were conducted in hairless guinea pigs (HGPs) to determine whether passive intracutaneous delivery of a plasmid DNA vaccine (pCMV-AYW-HBs-Mkan), which encodes for hepatitis B surface antigen [HBsAg]), could be achieved using Macroflux. […] Application of the microprotrusion array was performed with an impact applicator. The system applied comprised a foam double adhesive ring (diameter 2.5 cm, thickness 0.08 cm) with a 1 cm^2 reservoir in the middle.
One of two configurations of microprotrusion arrays were used. Each configuration has a total surface area of 2 cm^2 and an active total blade surface area of 1 cm^2.
A microprotrusion array of the selected type was adhered to the adhesive foam and covered the bottom of the reservoir (after application, the microprotrusion array is in contact with the skin). Following application, the stretching tension was released and the microprotrusion array was left in situ. […] At 1 hour after application, two systems from each group were removed and residual formulation washed from the skin. The amount of drug penetrated at that time was determined in a 6 mm diameter full thickness skin biopsy taken at the skin site. The biopsy was dissolved in a digestion buffer (sodium dodecyl sulfate/proteinase K) and relevant DNA content was evaluated by polymerase chain (PCR) reaction followed by electrophoresis of the PCR product. A positive control group was included which consisted of 10 μg plasmid DNA injected intradermally. Negative controls consisted of the plasmid DNA applied on the skin without the use of a microprotrusion array. […].

pathway closure [5] = experiment: India ink staining of sites after microprotrusion array pretreatment; format: in vivo, hairless guinea pigs; conditions: sites exposed to the additive for 24 h
[6] = format: in vivo, hairless guinea pigs; conditions: passive, array pretreatment (545 micrometer, 72/cm^2), PPS 0.05 mg/mL, DECAD 12 mg/mL, Inulin 2.5 mg/mL
Source text: Decrease in drug flux has been studied with three model drugs presenting different charge characteristics: pentosan polysulfate (PPS), a highly negatively charged compound, DECAD, a synthetic model decapeptide bearing two positive charges at pH 5.5, and inulin, a neutral polysaccharide.
In this experiment, PPS, DECAD, and inulin were delivered by passive diffusion through pathways in the skin created by pretreatment with a microprotrusion array. Pretreatment involves placing a microprotrusion array onto the skin with sufficient force to create a plurality of microslits/microcuts through the stratum corneum of the skin. The microprotrusion array is then removed from the skin and then some form of agent delivery device or agent reservoir is placed over the pathways in order to effect agent delivery or sampling. Pretreatment was used instead of integrated system because pathway closure appears to occur more rapidly and more reproducibly following pretreatment than when the microprotrusions are left in the skin during drug delivery. The concentration of PPS was below the concentration required for anticoagulant effect. All drugs were dissolved in water and solutions were gelled with 2% hydroxyethylcellulose. […]. PPS and DECAD were radiolabeled with tritium. […] was radiolabeled with ^14C.
Microprotrusion array application was performed with an impact applicator. […]. […]

[7] = format: in vivo, hairless guinea pigs
pathway closure [8] = conditions: guinea pig, not told
Procedure: as §1
An additional experiment was performed with PPS. Conditions were identical to that described in Example 4. Gluconic acid sodium salt, glucuronic acid sodium salt and glucose were evaluated at 0.6 M concentration with or without 3% citric acid.

[9] = design: species or system hairless guinea pigs; conditions: guinea pig, in vivo
Source text: […]. […] […].

[10] = design: species or system hairless guinea pigs; conditions: guinea pig, in vivo; remark: listed apart in the source
Procedure: Additional experiments were performed with PPS in order to test alternative modes of delivery. […]. By comparison, with the same microprotrusion array and the same PPS concentration, total dose from a transdermal microprotrusion array with integrated drug reservoir and a pretreatment with a microprotrusion array and subsequent application of a drug reservoir was 2.2±0.2 mg and 1.4±0.2 mg, respectively. […]

[11] = in vivo, po, cited from earlier work

Question: For `OCCCCC(O)CO` (stereo not drawn) [1,2,6-Hexanetriol], which “Effect on decrease in PPS flux between 1 and 24 h (in words)” value (pathway closure [1]) is on record?
Answer: inhibited this decrease in flux

Question: What about the “Increase in total amount of PPS transported as compared to controls” value (pathway closure [1]; PPS 0.1 mg/mL) of the same molecule?
Answer: ~7 folds

Question: What about the “Decrease in PPS flux between 1 and 24 h in the presence of additive” value (pathway closure [1]; PPS 0.1 mg/mL, formulation with 50% 1,2,6-hexanetriol) of the same molecule?
Answer: less than 2 fold

Question: What about the “Effect on pathway closure (in words)” value (pathway closure [2]) of the same molecule?
Answer: most effective agents

Question: And the “Score (methylene blue)” value (pathway closure [2]; additive concentration 11%)?
Answer: 2.0 ± 0.3

Question: And the “Score (methylene blue)” value (pathway closure [2]; additive concentration 23%)?
Answer: 3.0 ± 0.5

Question: And the “Score (methylene blue)” value (pathway closure [2]; additive concentration 50%)?
Answer: 3.8 ± 0.2

Question: And the “Effect on decrease in PPS flux at 24 hours (in words)” value (pathway closure [3])?
Answer: inhibited significantly the decrease in flux

Question: For `CCCCCCCC/C=C\CCCCCCCC(=O)OCCOCC(OCCO)C1OCC(OCCO)C1OCCO` (stereo not drawn) [Tween 80], which “Increase in plasmid DNA delivered as compared to the control formulation” value [4] is on record?
Answer: no significant enhancement

Question: For `OCC(O)CO` [Glycerin], which “Pathways open for larger sized compounds (India ink staining)” value (pathway closure [5]) is on record?
Answer: pathways were open for larger sized compounds

Question: And the “Score (methylene blue)” value (pathway closure [2]; additive concentration 30%)?
Answer: 2.7 ± 0.2

Question: And the “Score (methylene blue)” value (pathway closure [2]; additive concentration 50%)?
Answer: 3.0 ± 0.2

Question: And the “Score (methylene blue)” value (pathway closure [2]; additive concentration 70%)?
Answer: 2.7 ± 0.3

Question: Which “Drug Flux” value ([6]; 1 h) does the source give for inulin here?
Answer: 13.9 ± 1.6 μg/(cm^2h)

Question: And the “Drug Flux” value ([6]; 24 h)?
Answer: 0.489 ± 0.123 μg/(cm^2h)

Question: And the “percentage excreted in urine following iv injection” value ([7]; over two days following injection, previous studies)?
Answer: 94%

Question: Which results are given for `O=C(O)CC(O)(CC(=O)O)C(=O)O` [citric acid trisodium salt]?
Answer: Comparison between formulation groups ([4]; 1 hour): most efficient formulation; Increase in plasmid DNA delivered as compared to the control formulation [4]: more than 10 fold

Question: Which “Change of PPS flux between 1 hour and 24 hours (in words)” value (pathway closure [8]) does the source give for pentosan polysulfate [PPS] here?
Answer: flux decreased dramatically

Question: And the “Decrease in PPS flux between 1 hour and 24 hours” value (pathway closure [1]; PPS 0.1 mg/mL, 2% HEC, no anti-healing agent)?
Answer: about 12 fold

Question: What about the “intact fraction of dose excreted in urine” value [9] of the same molecule?
Answer: more than 85%

Question: And the total dose [10]?
Answer: 2.2 ± 0.2 mg

Question: What about the total dose delivered [10] of the same molecule?
Answer: 1.9 ± 0.1 mg

Question: And the bioavailability ([11]; 300 mg)?
Answer: 1-3%

Question: What about the “fraction of dose absorbed found intact in urine” value [11] of the same molecule?
Answer: less than 5%

Question: And the “Score (methylene blue)” value (pathway closure [2]; additive concentration 0.01%)?
Answer: 0 ± 0

Question: And the “Score (methylene blue)” value (pathway closure [2]; additive concentration 5%)?
Answer: 0.5 ± 0.0

Question: And the “percentage excreted in urine following iv injection” value ([7]; guinea pig, in vivo, iv)?
Answer: 32%

Question: Which results are given for `O=C(O)CC(O)(CC(=O)O)C(=O)O` [citric acid]?
Answer: Effect on decrease in PPS flux between 1 and 24 h (in words) (pathway closure [1]): inhibited this decrease in flux; Increase in total amount of PPS transported as compared to controls (pathway closure [1]; PPS 0.1 mg/mL): about 4 folds; Pathways open for larger sized compounds (India ink staining) (pathway closure [5]): pathways were open for larger sized compounds; Effect on pathway closure (in words) (pathway closure [2]): most effective agents in preventing pathway closure; Effect on decrease in PPS flux at 24 hours (in words) (pathway closure [3]): inhibited significantly the decrease in flux
